Results on five molecules are retold here after ChEMBL document CHEMBL1201862, “PubChem BioAssay data set” (2004).

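Each compound was tested at five concentrations against cells in 96-well plates for 48 hours. GI50 marks 50% less growth.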 Activity calls are given as the source filed them. Rule as the data show it: active = GI50 up to about 1.1 µM and inactive = higher.

Among the test systems are DU-145; HCT-15; HOP-62; HOP-92; HT-29; MCF7; NCI-H460; RPMI-8226; SF-539; SK-MEL-28; SK-MEL-2; SK-MEL-5; SNB-19; SNB-75; TK-10; UACC-62; K562; Malme-3M; NCI-H226.
Common to all, as to test: NCI-60 cell line screen, 48 h

On to `COCC[N+](CCNC(=O)c1cccc2c(N)c3cccc(C)c3nc12)(CCOC)Cc1ccc([N+](=O)[O-])cc1`, for which the GI50 in the experiment with DU-145 is 17 µM (inactive); with HCT-15 it was 41.8 µM; in the experiment on HOP-62, 31.8 µM (inactive); in the experiment with HOP-92, 29 µM (inactive); in the experiment with HT-29, 18.8 µM (inactive); in the experiment on MCF7 it was 19.4 µM (inactive). The GI50 in the experiment on NCI-H460 is 6.47 µM (inactive); with RPMI-8226 it was 5.6 µM (inactive); in the experiment with SF-539, 17.3 µM (inactive); in the experiment on SK-MEL-28, 13.8 µM (inactive); with SK-MEL-2, 28.8 µM (inactive); with SK-MEL-5, 4.53 µM (inactive). Besides, the GI50 in the experiment with SNB-19 was 40.4 µM (inactive); with SNB-75, 27 µM (inactive); with TK-10, 67.3 µM (inactive); in the experiment with UACC-62, 16 µM (inactive).
As to `COc1cc(OC)c2nccc(NCCCN(C)C)c2c1[N+](=O)[O-]`, the GI50 in the experiment on DU-145 was > 100 µM (inactive); in the experiment with HCT-15, over 100 µM; in the experiment on HOP-62 it was > 100 µM (inactive); in the experiment on HOP-92, 61.1 µM (inactive); with HT-29, 35 µM (inactive); with K562 it was 87.9 µM (inactive). Also, the GI50 with MCF7 was > 100 µM (inactive); with Malme-3M it was 55.1 µM (inactive); in the experiment on NCI-H460, 65.3 µM (inactive); in the experiment with RPMI-8226 it was > 100 µM (inactive); in the experiment on SF-539, 45.7 µM (inactive); in the experiment with SK-MEL-28, > 100 µM (inactive). Moreover, the GI50 in the experiment with SK-MEL-2 is > 100 µM (inactive); in the experiment with SK-MEL-5, > 100 µM (inactive); in the experiment with SNB-19 it was > 100 µM (inactive); in the experiment on SNB-75, 30.9 µM (inactive); with TK-10, > 100 µM (inactive); in the experiment with UACC-62, > 100 µM (inactive).
Turning to `CC(C)(C)c1ccc(C(O)(c2ccc(C(C)(C)C)cc2)c2ccc(C(C)(C)C)cc2)cc1`, the GI50 in the experiment on DU-145 is > 100 µM (inactive); in the experiment on HCT-15 it was over 100 µM; with HOP-62 it was > 100 µM (inactive); in the experiment with HT-29, > 100 µM (inactive); in the experiment with K562, > 100 µM (inactive); in the experiment with MCF7 it was > 100 µM (inactive). Besides, the GI50 in the experiment with Malme-3M is 6.92 µM (inactive); in the experiment with NCI-H226 it was > 100 µM (inactive); in the experiment with NCI-H460, > 100 µM (inactive); in the experiment with RPMI-8226, 52.2 µM (inactive); in the experiment on SF-539, > 100 µM (inactive); in the experiment on SK-MEL-28 it was > 100 µM (inactive). Moreover, the GI50 with SK-MEL-2, with SK-MEL-5, in the experiment on SNB-19, in the experiment on SNB-75, with TK-10 and in the experiment on UACC-62 was > 100 µM (inactive) throughout.
On to `COc1ccc(-c2nc(-c3cnccn3)n(C/C=C/c3ccccc3)n2)cc1`, for which the GI50 is > 100 µM (inactive) in the experiment on DU-145; over 100 µM with HCT-15; 21.5 µM (inactive) in the experiment on HOP-62; 11.5 µM (inactive) in the experiment with HOP-92; > 100 µM (inactive) with HT-29; > 100 µM (inactive) in the experiment with K562. In addition, the GI50 in the experiment with MCF7 was > 100 µM (inactive); in the experiment on NCI-H460, > 100 µM (inactive); in the experiment with RPMI-8226 it was > 100 µM (inactive); with SF-539, 26.5 µM (inactive); in the experiment with SK-MEL-28, 35.2 µM (inactive); in the experiment on SK-MEL-5, 44.4 µM (inactive). Besides, the GI50 in the experiment on SNB-19 is 37.2 µM (inactive); in the experiment with SNB-75 it was 21.8 µM (inactive); in the experiment on UACC-62, 35.2 µM (inactive).
Consider `C=CCCCN1C(=O)C2C3c4ccccc4C(C=O)(c4ccccc43)C2C1=O` (stereo not drawn), for which the GI50 in the experiment with DU-145 was 11.4 µM (inactive); in the experiment with HCT-15, 8.41 µM; in the experiment on HOP-62, 14.5 µM (inactive); in the experiment on HOP-92, 11.3 µM (inactive); with HT-29, 10 µM (inactive); in the experiment with K562, 3.62 µM (inactive). Moreover, the GI50 in the experiment on MCF7 was 12.3 µM (inactive); with Malme-3M, 13.6 µM (inactive); in the experiment on NCI-H460, 15.2 µM (inactive); in the experiment on RPMI-8226 it was 6.84 µM (inactive); in the experiment on SK-MEL-28, 15.9 µM (inactive); in the experiment with SK-MEL-2, 24 µM (inactive). The GI50 was 11.3 µM (inactive) in the experiment on SK-MEL-5, 13.1 µM (inactive) with SNB-19, 16.1 µM (inactive) in the experiment on TK-10 and 9.42 µM (inactive) with UACC-62.
